Key:
HeLa cells = test: Mitotic index of HeLa cells; type: cell-based, human
Experimental: HeLa Kyoto cells were cultured in high-glucose DMEM with GlutaMAX (Life Technologies) media supplemented with 10% fetal calf serum (FCS) in a humidified 5% CO2 incubator at 37° C. For plasmid transfections, cells were seeded at 80-90% confluence. 4 μg of plasmid DNA in 100 μl OptiMEM and 4 μl of Lipofectamine 2000 (Life Technologies) in 100 μl OptiMEM were incubated in parallel for 5 minutes, mixed for 20 minutes and added to each well. All Aurora A clones were constructed using full-length Aurora A as a template with appropriate PCR primer pairs. […] For determining the mitotic index and the chromosome misalignment phenotype, cells were incubated with various concentrations of compounds for 20 h before analysis. […] For rescue experiments, HeLa Kyoto cells were first transfected with GFP-Aurora A, GFP-Aurora AR137A or GFP-Aurora AW277A for 20 h, followed by incubation with 9 for another 20 h before cells were fixed with cold methanol and stained.

Aurora A kinase domain = biological target: T1, Aurora A kinase domain (Homo sapiens, UniProt O14965); test: HTRF kinase assay, Aurora A; type: biochemical; details: free Aurora A, 20 μM ATP, HTRF; read-out: IC50 Aurora A (biochemical)
T1 construct: human Aurora A kinase domain (residues 122-403 in the pET24-d vector); His-tag (cleaved yes); made in house; host or cells: E. coli BL21 (DE3) Rosetta
T1 sequence (O14965 122-403): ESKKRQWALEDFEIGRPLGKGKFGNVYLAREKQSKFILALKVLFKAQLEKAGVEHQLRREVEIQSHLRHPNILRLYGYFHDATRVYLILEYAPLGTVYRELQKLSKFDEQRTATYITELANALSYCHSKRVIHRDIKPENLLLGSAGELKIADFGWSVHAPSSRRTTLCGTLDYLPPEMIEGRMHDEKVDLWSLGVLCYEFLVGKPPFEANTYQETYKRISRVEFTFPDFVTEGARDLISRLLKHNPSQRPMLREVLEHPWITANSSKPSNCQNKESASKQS
Experimental: The clone of human Aurora A kinase domain (residues 122-403 in the pET24-d vector) was kindly provided by the Montoya laboratory (University of Copenhagen). The construct was transformed into E. coli BL21 (DE3) Rosetta cells and protein expression was induced with 0.5 mM IPTG at 20° C. for 12 hours. The cells were harvested at 6,000×g for 25 min at 4° C. and resuspended in lysis buffer (50 mM Tris-HCl, 500 mM NaCl, 1 mM PMSF, pH=8.0). Disruption of the cells was performed by sonication cooled on ice, after which the debris were removed by centrifugation at 110,000×g for 30 min at 4° C. Aurora A was purified by affinity chromatography using NiNTA resin from Qiagen following the manufacturer's instructions. After loading, the resin was washed with lysis buffer, followed by a second wash with 6% elution buffer (50 mM Tris-HCl, 500 mM NaCl, 500 mM imidazole, pH=8.0). Protein was eluted with 100% elution buffer. The eluate was exchanged into final buffer (20 mM Tris-HCl, 200 mM NaCl, 0.5 mM EDTA, 2 mM DTT, pH=8.0) using a HiPrep 26/10 desalting column (GE Healthcare). The His-tag was cleaved with TEV protease at 4° C. overnight. […] Protein concentration was determined by UV absorbance. […]
Aurora A and AuroraB kinases were assayed using the homogeneous time-resolved fluorescence (HTRF) KinEASE STK2 kit from Cisbio (France). […] After incubation at room temperature for one hour, fluorescence was measured at 620 nm (europium cryptate) and 665 nm (XL-665) after excitation at 317 nm (lag time 60 μs, integration time 500 μs) using a Tecan Infinite M1000 PRO microplate reader (Greiner 384-well plates, white, non-binding, small volume). The ratio of fluorescence (665 nm/620 nm) was calculated for each well and the results were expressed as follows: specific signal=ratio (sample)−ratio (negative control), where ratio=665 nm/620 nm×10^4. Compounds were measured in threefold serial dilutions at 10 different concentrations, covering the concentration range from no to full inhibition. Each concentration was measured in duplicates, and two independent determinations were made for each IC50 value. […]

HeLa Kyoto cells = test: DNA content analysis by flow cytometry; type: cell-based, human; details: 48 h, 9 even at 10 μM
Experimental: HeLa Kyoto cells were cultured in high-glucose DMEM with GlutaMAX (Life Technologies) media supplemented with 10% fetal calf serum (FCS) in a humidified 5% CO2 incubator at 37° C. For plasmid transfections, cells were seeded at 80-90% confluence. 4 μg of plasmid DNA in 100 μl OptiMEM and 4 μl of Lipofectamine 2000 (Life Technologies) in 100 μl OptiMEM were incubated in parallel for 5 minutes, mixed for 20 minutes and added to each well. All Aurora A clones were constructed using full-length Aurora A as a template with appropriate PCR primer pairs. […] GFP-Aurora AR137A and GFP-Aurora AW277A were engineered using a site directed mutagenesis kit (Agilent Technologies, no. 210515) with appropriate primers. For determining the mitotic index and the chromosome misalignment phenotype, cells were incubated with various concentrations of compounds for 20 h before analysis. Cells were likewise treated with 0.25 μM MLN8237 (Selleckchem, no. S1133) or 5 μM ZM447439 (Selleckchem, no. S1103). For flow cytometry analysis, 50 nM MLN8037 and 2.5 μM ZM447439 were used. […] To assess the impact of compound 9 on cell cycle progression, DNA content was analyzed after propidium iodide staining using FACS (BD Accuri C6 flow cytometer).

- IC50 (Aurora A kinase domain): 2 ± 0.5 nM
Structure (SMILES): CCc1ccc(N=C2SC(=Cc3ccnc(Nc4ccc(C(=O)O)cn4)c3)C(=O)N2C)cc1 [Compound 9]
- mitotic index (HeLa cells; 4 μM): ~15%
- mitotic index (HeLa cells; 10 μM): ~25%
- mitotic index (HeLa cells; 25 μM): ~40%
- accumulation of cells with 8N and 16N DNA contents (HeLa Kyoto cells): did not occur

— patent US20190352297A1, “SELECTIVE AURORA A KINASE INHIBITORS” (UNIVERSITAT BERN, priority 2017, published 2019)
